# ChEMBL document CHEMBL1121780, “Synthesis and antiarrhythmic activity of new benzofuran derivatives” (J Med Chem, 1981)
# Calls of active or inactive are those of the source. No cut-off for these calls is given here.
# Tested on: not listed separately
# Assay: Toxicity estimated in mouse as LD50 by intravenous administration
# Type: organism-based
# Settings: in vivo
row,Compound,LD50 [mg/kg]
1,COc1c(NC=O)c(OCCN2CCCCC2)c(OC)c2occc12,46
2,CNC(=O)Nc1c(OC)c(OC)c2occc2c1OCCN1CCCCC1,200
3,CNC(=O)Nc1c(OCCN2CCCCCCC2)c(OC)c2occc2c1OC,14
4,CNS(=O)(=O)Nc1c(OCCN2CCCCC2)c(OC)c2occc2c1OC,39
5,COC(=O)Nc1c(OCCN2CCCCC2)c(OC)c2occc2c1OC,15
6,CCN(CC)CCCOc1c(NC(=O)NC)c(OC)c2ccoc2c1OC,76
7,COc1c(NC(=O)C2CCCCC2)c(OCCN2CCCCC2)c(OC)c2occc12,7
8,CNC(=O)N(C)c1c(OCCN2CCCCC2)c(OC)c2occc2c1OC,66
9,COc1c(NC(C)=O)c(OCCN2CCCC2)c(OC)c2occc12,80
10,CCCCNC(=O)Nc1c(OCCN2CCCCC2)c(OC)c2occc2c1OC,22
11,CNC(=O)Nc1c(OC(C)CN2CCCCC2)c(OC)c2occc2c1OC (stereo unspecified),23
12,CNC(=O)Nc1c(OCCN2CCCCCC2)c(OC)c2occc2c1OC,31
13,CNC(=O)Nc1cc2ccoc2cc1OCCN1CCCCC1,67
14,CNC(=O)Nc1c(OCCCN(C)C)c(OC)c2occc2c1OC,44
15,COc1c(NC(N)=O)c(OCCN2CCCCC2)c(OC)c2occc12,40
16,COc1c(NC(=O)C(F)(F)F)c(OCCN2CCCCC2)c(OC)c2occc12,22
17,CNC(=O)Nc1c(OCCNC(C)C)c(OC)c2occc2c1OC,49
18,COc1c(NC(=O)NC(C)(C)C)c(OCCN2CCCCC2)c(OC)c2occc12,11.5
19,COc1c(NC(=O)Nc2ccccc2)c(OCCN2CCCCC2)c(OC)c2occc12,9
20,COc1c(NC(=O)NC(C)C)c(OCCN2CCCCC2)c(OC)c2occc12,25
21,CN/C(S)=N/c1c(OCCN2CCCCC2)c(OC)c2occc2c1OC,17
22,CCCNC(=O)Nc1c(OCCN2CCCCC2)c(OC)c2occc2c1OC,18.5
23,CNC(=O)Nc1c(OCCNC2CCCCC2)c(OC)c2occc2c1OC,9.5
24,CNC(=O)Nc1c(OCCN2CCCCC2)c(OC)c2occc2c1OC(C)C,11
25,COc1c(NC(=O)c2ccccc2)c(OCCN2CCCCC2)c(OC)c2occc12,2.5
26,CNC(=O)Nc1c(OCCCCN2CCCCC2)c(OC)c2occc2c1OC,68

# Tested on: Canis familiaris
# Assay: Activity against harris coronary ligation induced ventricular arrhythmia was measured as percent of final sinus complexes after dose 2 mg/kg, iv
# Type: functional, Canis lupus familiaris, Cardiac ventricle
# Settings: not given
row,Compound,FSC [%]
1,CNC(=O)Nc1c(OCCN2CCCCCC2)c(OC)c2occc2c1OC,78

# Tested on: Canis familiaris
# Assay: Activity against ouabain-induced ventricular arrhythmia was measured as percent of sinus rhythm recovery at dose of 1 mg/kg iv
# Type: functional, Canis lupus familiaris, Cardiac ventricle
# Settings: not given
row,Compound,SRR [%]
1,CNC(=O)Nc1c(OC(C)CN2CCCCC2)c(OC)c2occc2c1OC (stereo unspecified),100
2,CNC(=O)Nc1c(OCCNC2CCCCC2)c(OC)c2occc2c1OC,100

# Species: Canis familiaris
# Assay: Activity against ouabain-induced ventricular arrhythmia was measured as percent of sinus rhythm recovery; Inactive
# Type: functional, organism-based
# Settings: Canis lupus familiaris; Cardiac ventricle
row,Compound,SRR
1,CNC(=O)Nc1c(OC)c(OC)c2occc2c1OCCN1CCCCC1,inactive
2,CNS(=O)(=O)Nc1c(OCCN2CCCCC2)c(OC)c2occc2c1OC,inactive
3,COC(=O)Nc1c(OCCN2CCCCC2)c(OC)c2occc2c1OC,inactive
4,CCCCNC(=O)Nc1c(OCCN2CCCCC2)c(OC)c2occc2c1OC,inactive
5,CNC(=O)Nc1cc2ccoc2cc1OCCN1CCCCC1,inactive
6,CNC(=O)Nc1c(OCCCN(C)C)c(OC)c2occc2c1OC,inactive
7,COc1c(NC(N)=O)c(OCCN2CCCCC2)c(OC)c2occc12,inactive
8,COc1c(NC(=O)C(F)(F)F)c(OCCN2CCCCC2)c(OC)c2occc12,inactive
9,COc1c(NC(=O)NC(C)(C)C)c(OCCN2CCCCC2)c(OC)c2occc12,inactive
10,COc1c(NC(=O)Nc2ccccc2)c(OCCN2CCCCC2)c(OC)c2occc12,inactive
11,COc1c(NC(=O)NC(C)C)c(OCCN2CCCCC2)c(OC)c2occc12,inactive
12,CN/C(S)=N/c1c(OCCN2CCCCC2)c(OC)c2occc2c1OC,inactive
13,CCCNC(=O)Nc1c(OCCN2CCCCC2)c(OC)c2occc2c1OC,inactive
14,CNC(=O)Nc1c(OCCN2CCCCC2)c(OC)c2occc2c1OC(C)C,inactive

# Tested on: Canis familiaris
# Assay: Activity against ouabain-induced ventricular arrhythmia was measured as percent of sinus rhythm recovery at dose of 2 mg/kg iv
# Type: functional, Canis lupus familiaris, Cardiac ventricle
# Settings: not given
row,Compound,SRR [%]
1,CNC(=O)Nc1c(OCCN2CCCCCCC2)c(OC)c2occc2c1OC,100
2,CCN(CC)CCCOc1c(NC(=O)NC)c(OC)c2ccoc2c1OC,100
3,CNC(=O)N(C)c1c(OCCN2CCCCC2)c(OC)c2occc2c1OC,100
4,CNC(=O)Nc1c(OCCN2CCCCCC2)c(OC)c2occc2c1OC,100
5,CNC(=O)Nc1c(OCCN2CCC2)c(OC)c2occc2c1OC,100

# Species: Canis familiaris
# Assay: Activity against ouabain-induced ventricular arrhythmia was measured as percent of sinus rhythm recovery; Estimated as too toxic to be tested
# Type: functional, organism-based
# Settings: Canis lupus familiaris; Cardiac ventricle
row,Compound,SRR
1,COc1c(NC(=O)C2CCCCC2)c(OCCN2CCCCC2)c(OC)c2occc12,Estimated as too toxic to be tested
2,COc1c(NC(=O)c2ccccc2)c(OCCN2CCCCC2)c(OC)c2occc12,Estimated as too toxic to be tested

# Tested on: Canis familiaris
# Assay: Activity against harris coronary ligation induced ventricular arrhythmia was measured as percent of final sinus complexes after dose 12.5 mg/kg, po
# Type: functional, Canis lupus familiaris, Cardiac ventricle
# Settings: not given
row,Compound,FSC [%]
1,CNC(=O)Nc1c(OCCN2CCCCCC2)c(OC)c2occc2c1OC,90

# Tested on: Canis familiaris
# Assay: Activity against harris coronary ligation induced ventricular arrhythmia was measured as percent of initial sinus complexes after dose 12.5 mg/kg, po
# Type: functional, Canis lupus familiaris, Cardiac ventricle
# Settings: not given
row,Compound,ISC [%]
1,CNC(=O)Nc1c(OCCN2CCCCCC2)c(OC)c2occc2c1OC,5

# Species: Canis familiaris
# Assay: Duration for the sinus rhythm recovery was measured
# Type: functional, Canis lupus familiaris
# Settings: not given
row,Compound,Duration [min]
1,COc1c(NC=O)c(OCCN2CCCCC2)c(OC)c2occc12,10
2,CNC(=O)Nc1c(OCCN2CCCCCCC2)c(OC)c2occc2c1OC,30
3,CCN(CC)CCCOc1c(NC(=O)NC)c(OC)c2ccoc2c1OC,15
4,CNC(=O)N(C)c1c(OCCN2CCCCC2)c(OC)c2occc2c1OC,<10
5,COc1c(NC(C)=O)c(OCCN2CCCC2)c(OC)c2occc12,<30
6,CNC(=O)Nc1c(OC(C)CN2CCCCC2)c(OC)c2occc2c1OC (stereo unspecified),15
7,CNC(=O)Nc1c(OCCN2CCCCCC2)c(OC)c2occc2c1OC,95
8,CNC(=O)Nc1c(OCCNC(C)C)c(OC)c2occc2c1OC,<30
9,CNC(=O)Nc1c(OCCNC2CCCCC2)c(OC)c2occc2c1OC,120
10,CNC(=O)Nc1c(OCCN2CCC2)c(OC)c2occc2c1OC,10
11,CNC(=O)Nc1c(OCCCCN2CCCCC2)c(OC)c2occc2c1OC,<30

# Tested on: Canis familiaris
# Assay: Activity against harris coronary ligation induced ventricular arrhythmia was measured as percent of initial sinus complexes after dose 2 mg/kg, iv; Inactive
# Type: functional, organism-based
# Design: dose 2 mg/kg
# Settings: Canis lupus familiaris; Cardiac ventricle; at 2 mg/kg
row,Compound,ISC
1,CNC(=O)Nc1c(OCCN2CCCCCCC2)c(OC)c2occc2c1OC,inactive

# Tested on: not listed separately
# Assay: Toxicity was estimated in mouse as LD50 by intravenous administration; LD50=1000 (40%)
# Type: organism-based
# Settings: in vivo
row,Compound,LD50 [mg/kg]
1,CNC(=O)Nc1c(OCCN2CCC2)c(OC)c2occc2c1OC,1000

# Tested on: Canis familiaris
# Assay: Activity against harris coronary ligation induced ventricular arrhythmia was measured as percent of initial sinus complexes after dose 1 mg/kg iv; Inactive
# Type: organism-based, Canis lupus familiaris, Cardiac ventricle
# Design: dose 1 mg/kg
# Settings: dog, in vivo
row,Compound,ISC
1,CNC(=O)Nc1c(OCCNC2CCCCC2)c(OC)c2occc2c1OC,Not Active

# Tested on: Canis familiaris
# Assay: Activity against ouabain-induced ventricular arrhythmia was measured as percent of sinus rhythm recovery at dose of 4 mg/kg iv
# Type: functional, Canis lupus familiaris, Cardiac ventricle
# Settings: not given
row,Compound,SRR [%]
1,COc1c(NC=O)c(OCCN2CCCCC2)c(OC)c2occc12,100
2,COc1c(NC(C)=O)c(OCCN2CCCC2)c(OC)c2occc12,33
3,CNC(=O)Nc1c(OCCNC(C)C)c(OC)c2occc2c1OC,100
4,CNC(=O)Nc1c(OCCCCN2CCCCC2)c(OC)c2occc2c1OC,100

# Tested on: Canis familiaris
# Assay: Activity against harris coronary ligation induced ventricular arrhythmia was measured as percent of initial sinus complexes after dose 2 mg/kg iv
# Type: functional, Canis lupus familiaris, Cardiac ventricle
# Settings: not given
row,Compound,ISC [%]
1,CNC(=O)Nc1c(OCCN2CCCCCC2)c(OC)c2occc2c1OC,3
